Measurements published in patent publication US8410144B2, “Substituted indolo-pyridinone compounds” (ArQule, Inc., priority 2009, dated 2013).

What was measured:
MDA-MB-231 = experiment: MTS assay, MDA-MB-231 cells; format: cell-based; conditions: Homo sapiens, 72 hours, read-out: MDA-MB-231, MTS cell kill % inhibition
Protocol: (§1) Cells were maintained at 37° C., 5% CO2 in DMEM media supplemented with 1% fetal bovine serum, penicillin/streptomycin and fungizone (Invitrogen). Cells were seeded into 96-well tissue culture plates at 3000 per well and cultured at 37° C. for 18 hours. Test compounds were dissolved and diluted to 300× in DMSO then diluted 1:40 in DMEM. Cells were incubated with test compounds for 72 hours followed by incubation with tetrazolium compound (3-(4,5-dimethylthiazol-2-yl)-5-(3-carboxymethoxyphenyl)-2-(4-sulfophenyl)-2H-tetrazolium, inner salt; MTS) and the electron coupling reagent, phenazine methosulfate (PMS) for 4 hours. […] The ability of compounds to inhibit cell growth in this assay is correlated with the reduction of dehydrogenase enzyme activity found in metabolically active cells. The measurement of the absorbance of the formazan was assessed using an ENVISION™ (Perkin Elmer) microplate reader at 492 nm. The calculated IC50 value is the concentration of the test compound that causes a 50% decrease in the absorbance.

IGF-1R = IGF-1R (Homo sapiens, UniProt P08069); experiment: IGFR1 activity assay (ELISA); format: biochemical; conditions: read-out: IGF-1R, PCT INH (30 μM), ELISA
Protocol: The disclosed compounds were assayed for their ability to inhibit insulin-like growth factor receptor-1 (IGFR1). Nunc Maxisorb plates were coated with streptavidin by overnight incubation with 100 μL per well of 1 μg/ml Streptavidin in DPBS. Prior to the start of the experiment, the plates were washed with TBST (3×200 μL) and blocked for at least 1 hour by adding 150 μL of 5% BSA/TBST. The plates were washed with TBST (3×200 μL/well) and left to dry immediately before the capture step.
The disclosed test articles and controls (Staurosporine) were prepared using the following assay buffer at 3× desired final concentration (50 mM Tris-HCl, 0.02 mg/ml BSA, 10 mM MgCl2, 0.1 mM Na3VO4, 1 mM EGTA, 12.5 μM ATP, 0.01% NP-40, 1 mM DTT in 10% glycerol/water). 20 μL of the test compounds (or control), 20 μL IGF1R (0.33 ng/μL final concentration), and 20 μL of Pyk-2 (0.05 ng/μL final concentration) were rapidly added to the reaction plate. The plate was incubated at room temperature for one hour.
50 μL was transferred from the reaction plate to the streptavidin coated plate. The capture plate was incubated at room temperature for 30 minutes, then washed with TBST three times. 100 μL/well of Cell Signaling anti-phospho tyrosine was added to the capture plate at a dilution of 1:3000 in 2% BSA/TBST. The plate was incubated for one hour at room temperature then washed 6× with TBST. 100 μL/well of alkaline phosphatase tagged goat anti mouse antibody was added to the capture plate at a dilution of 1:4000 in 2% BSA/TBST. The plate was incubated for one hour at room temperature then washed with TBST six times.
The fluorescent readout is initiated by the addition of 100 μL/well of Attophos reagent (6 mg/10 mL). The reading is done on the Perkin Elmer Envision system.

NCI-H1299 = experiment: MTS assay, NCI-H1299 cells; format: cell-based; conditions: Homo sapiens, 72 hours, read-out: NCI-H1299, MTS cell kill % inhibition
Protocol: as §1

KATO III = experiment: MTS assay, KATO III cells; format: cell-based; conditions: Homo sapiens, 72 hours, read-out: KATO III, MTS cell kill % inhibition
Protocol: as §1

DLD-1 = experiment: MTS assay, DLD-1 cells; format: cell-based; conditions: Homo sapiens, 72 hours, read-out: DLD-1, MTS cell kill % inhibition
Protocol: as §1

Sequence of IGF-1R (P08069 31-1367): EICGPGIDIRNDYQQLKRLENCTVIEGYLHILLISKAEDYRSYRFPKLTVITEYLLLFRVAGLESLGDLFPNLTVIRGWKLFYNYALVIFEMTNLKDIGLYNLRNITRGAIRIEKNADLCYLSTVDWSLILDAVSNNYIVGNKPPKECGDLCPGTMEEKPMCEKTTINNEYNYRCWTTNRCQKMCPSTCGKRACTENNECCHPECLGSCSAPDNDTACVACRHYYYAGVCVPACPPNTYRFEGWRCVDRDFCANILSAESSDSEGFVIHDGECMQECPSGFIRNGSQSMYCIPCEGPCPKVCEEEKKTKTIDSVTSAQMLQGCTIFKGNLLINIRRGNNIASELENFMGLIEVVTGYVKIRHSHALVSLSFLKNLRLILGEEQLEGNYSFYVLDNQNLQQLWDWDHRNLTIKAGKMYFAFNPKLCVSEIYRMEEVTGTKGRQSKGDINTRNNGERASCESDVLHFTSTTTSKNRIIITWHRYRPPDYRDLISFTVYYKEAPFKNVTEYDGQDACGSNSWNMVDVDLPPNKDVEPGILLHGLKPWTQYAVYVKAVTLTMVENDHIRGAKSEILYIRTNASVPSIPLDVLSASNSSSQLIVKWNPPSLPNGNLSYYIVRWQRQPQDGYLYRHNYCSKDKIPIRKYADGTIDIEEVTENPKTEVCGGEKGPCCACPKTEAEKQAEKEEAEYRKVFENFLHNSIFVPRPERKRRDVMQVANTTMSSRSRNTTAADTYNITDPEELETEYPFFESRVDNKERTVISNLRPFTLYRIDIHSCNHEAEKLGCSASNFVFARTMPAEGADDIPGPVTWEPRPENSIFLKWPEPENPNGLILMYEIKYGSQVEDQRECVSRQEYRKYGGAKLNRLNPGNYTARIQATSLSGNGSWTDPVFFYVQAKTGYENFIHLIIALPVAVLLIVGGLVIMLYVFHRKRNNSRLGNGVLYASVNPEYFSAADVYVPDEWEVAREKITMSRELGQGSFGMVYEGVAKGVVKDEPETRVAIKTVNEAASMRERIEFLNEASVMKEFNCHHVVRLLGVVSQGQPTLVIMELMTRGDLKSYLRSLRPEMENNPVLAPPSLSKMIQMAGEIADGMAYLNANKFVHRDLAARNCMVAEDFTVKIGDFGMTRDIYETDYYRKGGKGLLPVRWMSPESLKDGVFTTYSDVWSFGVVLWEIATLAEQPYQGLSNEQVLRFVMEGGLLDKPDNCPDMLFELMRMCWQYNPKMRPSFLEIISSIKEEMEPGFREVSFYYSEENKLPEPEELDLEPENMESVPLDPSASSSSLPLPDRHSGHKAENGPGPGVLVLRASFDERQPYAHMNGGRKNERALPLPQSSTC

Compound	inhibition at 10 µM (MDA-MB-231)	inhibition at 30 µM (IGF-1R)	inhibition at 10 µM (NCI-H1299)	inhibition at 10 µM (KATO III)	inhibition at 10 µM (DLD-1)
O=C(NCCc1ccccn1)c1ccc2[nH]c(-c3ccc[nH]c3=O)c(-c3ccc(-c4ccccc4)cc3)c2c1 [Compound 39, 3-biphenyl-4-yl-2-(2-oxo-1,2-dihydropyridin-3-yl)-N-(2-pyridin-2-ylethyl)-1H-indole-5-carboxamide]	80 to 100%	50 to 79%	80 to 100%	80 to 100%	80 to 100%
O=C(NCc1ccccc1)c1ccc2[nH]c(-c3ccc[nH]c3=O)c(-c3ccc(-c4ccccc4)cc3)c2c1 [Compound 40, N-benzyl-3-biphenyl-4-yl-2-(2-oxo-1,2-dihydropyridin-3-yl)-1H-indole-5-carboxamide]	< 50%	< 50%	50 to 79%	< 50%	< 50%
O=C(c1ccc2[nH]c(-c3ccc[nH]c3=O)c(-c3ccc(-c4ccccc4)cc3)c2c1)N1CCN(Cc2ccccn2)CC1 [Compound 41, 3-(3-biphenyl-4-yl-5-{[4-(pyridin-2-ylmethyl)piperazin-1-yl]carbonyl}-1H-indol-2-yl)pyridin-2(1H)-one]	50 to 79%	50 to 79%	80 to 100%	80 to 100%	80 to 100%
CCOC(=O)N1CCN(C(=O)c2ccc3[nH]c(-c4ccc[nH]c4=O)c(-c4ccc(-c5ccccc5)cc4)c3c2)CC1 [Compound 44, ethyl 4-{[3-biphenyl-4-yl-2-(2-oxo-1,2-dihydropyridin-3-yl)-1H-indol-5-yl]carbonyl}piperazine-1-carboxylate]	80 to 100%	50 to 79%	80 to 100%	80 to 100%	50 to 79%
CN(C)CCCN(C)C(=O)c1ccc2[nH]c(-c3ccc[nH]c3=O)c(-c3ccc(-c4ccccc4)cc3)c2c1 [Compound 46, 3-biphenyl-4-yl-N-[3-(dimethylamino)propyl]-N-methyl-2-(2-oxo-1,2-dihydropyridin-3-yl)-1H-indole-5-carboxamide]	80 to 100%	80 to 100%	80 to 100%	80 to 100%	80 to 100%
CN1CCC(N2CCN(C(=O)c3ccc4[nH]c(-c5ccc[nH]c5=O)c(-c5ccc(-c6ccccc6)cc5)c4c3)CC2)CC1 [Compound 50, 3-(3-biphenyl-4-yl-5-{[4-(1-methylpiperidin-4-yl)piperazin-1-yl]carbonyl}-1H-indol-2-yl)pyridin-2(1H)-one]	80 to 100%	50 to 79%	80 to 100%	80 to 100%	80 to 100%
CN1CCN(C(=O)c2ccc3[nH]c(-c4ccc[nH]c4=O)c(-c4ccc(-c5ccccc5)cc4)c3c2)CC1 [Compound 52, 3-{3-biphenyl-4-yl-5-[(4-methylpiperazin-1-yl)carbonyl]-1H-indol-2-yl}pyridin-2(1H)-one]	80 to 100%	80 to 100%	80 to 100%	80 to 100%	80 to 100%
Cc1ccccc1-c1c(-c2ccc[nH]c2=O)[nH]c2ccc(C(=O)NCCCN3CCOCC3)cc12 [Compound 58, 3-(2-methylphenyl)-N-(3-morpholin-4-ylpropyl)-2-(2-oxo-1,2-dihydropyridin-3-yl)-1H-indole-5-carboxamide]	< 50%	80 to 100%	< 50%	< 50%	< 50%
O=C(NCCCN1CCOCC1)c1ccc2[nH]c(-c3ccc[nH]c3=O)c(-c3cc(F)ccc3F)c2c1 [Compound 60, 3-(2,5-difluorophenyl)-N-(3-morpholin-4-ylpropyl)-2-(2-oxo-1,2-dihydropyridin-3-yl)-1H-indole-5-carboxamide]	50 to 79%	80 to 100%	80 to 100%	80 to 100%	50 to 79%
O=C(NCCCN1CCOCC1)c1ccc2[nH]c(-c3ccc[nH]c3=O)c(-c3ccc(F)c(F)c3)c2c1 [Compound 61, 3-(3,4-difluorophenyl)-N-(3-morpholin-4-ylpropyl)-2-(2-oxo-1,2-dihydropyridin-3-yl)-1H-indole-5-carboxamide]	80 to 100%	80 to 100%	80 to 100%	80 to 100%	80 to 100%
O=C(NCCCN1CCOCC1)c1ccc2[nH]c(-c3ccc[nH]c3=O)c(-c3cccc(Cl)c3)c2c1 [Compound 62, 3-(3-chlorophenyl)-N-(3-morpholin-4-ylpropyl)-2-(2-oxo-1,2-dihydropyridin-3-yl)-1H-indole-5-carboxamide]	80 to 100%	80 to 100%	80 to 100%	80 to 100%	80 to 100%
COc1cccc(-c2c(-c3ccc[nH]c3=O)[nH]c3ccc(C(=O)NCCCN4CCOCC4)cc23)c1 [Compound 63, 3-(3-methoxyphenyl)-N-(3-morpholin-4-ylpropyl)-2-(2-oxo-1,2-dihydropyridin-3-yl)-1H-indole-5-carboxamide]	50 to 79%	80 to 100%	80 to 100%	80 to 100%	50 to 79%
COc1ccc(C(C)C)cc1-c1c(-c2ccc[nH]c2=O)[nH]c2ccc(C(=O)NCCCN3CCOCC3)cc12 [Compound 64, 3-(5-isopropyl-2-methoxyphenyl)-N-(3-morpholin-4-ylpropyl)-2-(2-oxo-1,2-dihydropyridin-3-yl)-1H-indole-5-carboxamide]	< 50%	80 to 100%	< 50%	< 50%	< 50%
Cc1ccc(-c2c(-c3ccc[nH]c3=O)[nH]c3ccc(C(=O)NCCCN4CCOCC4)cc23)cc1F [Compound 67, 3-(3-fluoro-4-methylphenyl)-N-(3-morpholin-4-ylpropyl)-2-(2-oxo-1,2-dihydropyridin-3-yl)-1H-indole-5-carboxamide]	50 to 79%	80 to 100%	80 to 100%	80 to 100%	50 to 79%
O=C(NCCCN1CCOCC1)c1ccc2[nH]c(-c3ccc[nH]c3=O)c(-c3ccc(F)cc3)c2c1 [Compound 68, 3-(4-fluorophenyl)-N-(3-morpholin-4-ylpropyl)-2-(2-oxo-1,2-dihydropyridin-3-yl)-1H-indole-5-carboxamide]	< 50%	80 to 100%	50 to 79%	< 50%	< 50%
O=C(NCCCN1CCOCC1)c1ccc2[nH]c(-c3ccc[nH]c3=O)c(-c3ccc(Cl)cc3)c2c1 [Compound 69, 3-(4-chlorophenyl)-N-(3-morpholin-4-ylpropyl)-2-(2-oxo-1,2-dihydropyridin-3-yl)-1H-indole-5-carboxamide]	50 to 79%	80 to 100%	< 50%	< 50%	< 50%
COc1ccc(-c2c(-c3ccc[nH]c3=O)[nH]c3ccc(C(=O)NCCCN4CCOCC4)cc23)cc1OC [Compound 73, 3-(3,4-dimethoxyphenyl)-N-(3-morpholin-4-ylpropyl)-2-(2-oxo-1,2-dihydropyridin-3-yl)-1H-indole-5-carboxamide]	< 50%	80 to 100%	< 50%	< 50%	< 50%
O=C(NCCCN1CCOCC1)c1ccc2[nH]c(-c3ccc[nH]c3=O)c(-c3csc4ccccc34)c2c1 [Compound 74, 3-(1-benzothien3-yl)-N-(3-morpholin-4-ylpropyl)-2-(2-oxo-1,2-dihydropyridin-3-yl)-1H-indole-5-carboxamide]	50 to 79%	80 to 100%	50 to 79%	80 to 100%	50 to 79%
